As usually defined, the Kp is the ratio of the level in a tissue or fluid to that in plasma or blood. A word on the bioavailability: it is dose-corrected exposure relative to a reference, in per cent. High values mean much systemic uptake, low ones little systemic uptake.

The values that follow come from patent publication US8894989B2, “PARP inhibitor compounds, compositions and methods of use” (Eisai Inc., priority 2007, dated 2014).

“Also recorded” adds a separate entry of the source. Read-outs that look alike come from different tables or passages of the source.

Data set [1] can be described thus: Bioavailability and brain/plasma levels in rats. As to conditions: 30 mg/kg; for Kp / bioavailability: rat; for Kp: brain; for bioavailability: plasma, po.
Data set [2] in a line: Bioavailability and brain/plasma levels in mice. As to conditions: 30 mg/kg; for Kp / bioavailability: mouse; for Kp: brain; for bioavailability: plasma, po.
The next data set concerns B16 melanoma. The data set can be described thus: Mouse intracranial model of B16 melanoma, combination with TMZ. The data set is classed as in vivo, mice. Conditions: for survival time: compound 13 10 mg/kg oral + TMZ vs TMZ as single agent (P<0.0001).
Another data set concerns SJGBM2 glioma. Conditions: for efficacy (survival): compound 13 10 mg/kg po + TMZ.
A short description of data set [3]: in vivo. As to conditions: mouse, po, 30 mg/kg.
A short description of data set [4]: in vivo. As to conditions: rat, po, 30 mg/kg.
Data set [5] is described as follows: Plasma and tissue pharmacokinetic properties in mice, rats, and dogs (general statements). The data set is classed as in vivo. As to conditions: in words. On the procedure:
AUC was calculated using the Linear/Log rule.
Selective PARP inhibitors were tested for basic plasma and tissue pharmacokinetic properties in mice, rats, and dogs. After assessment, this family compounds appear to be orally bioavailable in all species and to penetrate brain and tumor tissue.

For data set [6], the system named is Human HNSCC cell line JHU012. The data set can be described thus: Enhancement of radiation treatment of head and neck squamous cell carcinoma xenograft. The data set is classed as in vivo, BALB/c nude mice. As for the experimental part:
Human HNSCC cell line JHU012 was used, having been previously genetically characterized and originally derived at the Johns Hopkins University Head and Neck Laboratories from human tumor explants. The cell line was maintained in RPMI 1640 medium with 10% fetal bovine serum and 1% penicillin/streptomycin at 5% CO2 in 37° C. humidified incubators. Experiments were performed on 6-week-old male BALB/c nude mice nu/nu. […] Mice were anesthetized by intraperitoneal injection of […] tribromoethanol. Tumors were established at the right flank by subcutaneous injection of 1×10^7 cells. Fourteen days post cell injection tumors were surgically exposed and measured in 3 dimensions using calipers.

In a further data set the test system is BRCA-1 null cells. The data set can be described thus: Tumor growth in mice bearing BRCA-1 deficient tumors. The data set is classed as in vivo, nu/nu mice. As for the experimental part:
1×10^6 BRCA-1 null cells were injected subcutaneously on the right flank of female nu/nu mice (6-7 weeks old; Harlan Sprague Dawley, Indianapolis Ind.). After approximately 10-14 days, the tumors were approximately 100 mm^3. Mice were sorted into groups so that mean tumor size was similar among groups with minimum standard deviations. Dosing started the day after sorting and tumor volume was monitored three times per week. Tumors were measured in two diameters and volume calculated by […]. Mice were removed from the study when tumors reached 1500 mm^3. “Time to Endpoint” or TTE (the number of days it takes for the tumor to reach 1500 mm^3 or greater) is the endpoint of the study. […] The compound was dosed orally, daily for 28 days from start of the study—day 1. A positive control was utilized, using a well known PARP inhibitor shown to be effective as a stand alone agent in the BRCA models (Bryant et al). The positive control agent was dosed at 25 mg/kg IP qdx5 from start of experiment.

In [1], `O=c1[nH]nc2c3c(cccc13)N=C(CN1Cc3ccccc3C1)N2` [drawing 99] came in with a Kp of 0.36 and a bioavailability of 45%. In data set [2], this molecule registered a Kp of 0.26 and a bioavailability of 81%.

Regarding `O=c1[nH]nc2c3c(cccc13)N=C(CN1CC=C(c3ccccc3)CC1)N2` [Compound 13, 8-(4-phenyl-3,6-dihydro-2H-pyridin-1-ylmethyl)-2,9-dihydro-1,2,7,9-tetraaza-phenalen-3-one], the survival time result with B16 melanoma is “enhance survival”; in the data set with B16 melanoma (listed as compound 13), “significantly increased the survival time”. Also, the “MTS (median survival time)” value in the data set with SJGBM2 glioma (compound 13 10 mg/kg po 15 min pre-TMZ, combination with TMZ (P=0.002)) turned out to be 25 days. Also, the “efficacy (survival)” value in the data set with SJGBM2 glioma is listed as “enhanced survival”; in the data set on SJGBM2 glioma (listed as compound 13) it was “efficacious”.

In the case of `O=c1[nH]nc2c3c(cccc13)N=C(CN1CC=C(c3ccccc3)CC1)N2` [drawing 97], the bioavailability in “in vivo [3]” came out at 61%; in the data set “in vivo [4]”, 51%. Moreover, the Kp amounted to 0.42 in data set [1] and 0.46 in data set [2].

In the case of `O=c1[nH]nc2c3c(cccc13)N=C(CN1CCOCC1)N2` [prior art compound], in data set [5], the oral bioavailability result is given as “good bioavailability” and the “ratio of brain to plasma levels” value is given as “very low”.

For the molecule `O=c1[nH]nc2c3c(cccc13)N=C(CN1CCC(c3ccccc3)CC1)N2`, the bioavailability in data set [1] is 50%; in data set [2], 75%. For the same molecule, the “B/P in rats (ratio of brain to plasma levels)” value in data set [1] (rats) is on record as 71-117%. The “B/P in mice (ratio of brain to plasma levels)” value in data set [2] (mice) is 30-64%.

As for `O=c1[nH]nc2c3c(cccc13)N=C(CN1CCN(c3ccccc3)CC1)N2`, in [1], the Kp stood at 0.4 and the bioavailability worked out at 58%. In data set [2], the Kp turned out to be 0.49 and the bioavailability worked out at 49%.

Turning to `Cn1nnc2c(C(N)=O)ncn2c1=O` [TMZ, temozolomide, reference compound], in the data set with B16 melanoma (TMZ treated vs control group), the survival times entry is “No significant differences in survival times”. Also, the “MTS (median survival time)” value in the data set on SJGBM2 glioma (TMZ alone) came to 22.5 days. The “response of SJGBM2 to TMZ” value in the data set on SJGBM2 glioma (TMZ as single agent) is given as “ineffective”.

As to `O=c1[nH]nc2c3c(cccc13)N=C(CN1Cc3ccccc3C1)N2` [Compound 37, 8-(1,3-dihydro-isoindol-2-ylmethyl)-2,9-dihydro-1,2,7,9-tetraaza-phenalen-3-one], in the data set on B16 melanoma (Compound 37 12.5 mg/kg oral + TMZ vs TMZ as single agent), the mean survival time result is listed as “significantly higher; also recorded: enhance survival”. Further, the tumor growth inhibition entry in data set [6] (100 mg/kg Compound 37 PO qdx17 alone compared to vehicle controls) and in data set [6] (Compound 37 30 mg/kg PO + radiation compared to radiation alone) was “no significant effect on tumor growth inhibition” each time. Also, the “inhibition of tumor growth” value in data set [6] (Compound 37 oral (100 mg/kg) + radiation vs control) is on record as “significant inhibition of tumor growth”. The “tumor volume at end of experiment” value in data set [6] (Group 5: 100 mg/kg Compound 37 PO + Radiation (2 gy/day for 2 days), day 31, control 585.9 mm^3, p<0.01) is given as 209.04 mm^3. Further, the tumor growth entry in the data set with BRCA-1 null cells (100 mg/kg Compound 37 orally, daily for 28 days, vs vehicle controls) was “effective in significantly retarding tumor growth; also recorded: inhibition of growth”. Moreover, the “time until tumors start to grow after dosing stopped at day 28” value in the data set on BRCA-1 null cells (Compound 37 100 mg/kg po daily for 28 days) was in the range of 10 to 14 days. The “tumor growth delay compared to positive control” value in the data set with BRCA-1 null cells (Compound 37 100 mg/kg po vs positive control PARP inhibitor 25 mg/kg IP qdx5 (p<0.05)) is “delayed tumor growth compared to the positive control”. The animal survival entry with SJGBM2 glioma (10 mg/kg Compound 37 + TMZ five days followed by Compound 37 100 mg/kg for 14 days vs 10 mg/kg Compound 37 + TMZ five days) is reported as “significantly increased animal survival”.

In the case of `O=c1[nH]nc2c3c(cccc13)N=C(CN1CCOCC1)N2` [drawing 95], in [1], the Kp is less than 0.05 and the bioavailability stood at 77%. For the same molecule, in data set [2], the Kp is less than 0.05 and the bioavailability stood at 77%.
